Test results published in USRE48097E1, “Cephem compounds, their production and use” (priority 2015, dated 2020).
≈ marks a conversion by molar mass, not a printed value. Where two headings read alike, the source gives them in different places.

Columns and labels:
Assay type in all cases: cell-based
K. baumanii 4091 = experiment: MIC against K. baumanii 4091; conditions: Table 2, K. baumanii 4091, OXA-23
Excerpt: (§1) Without limitation, the present cephem compounds alone, or in combination with one or more β-lactamase inhibitors, may provide improved antibacterial efficacy, particularly in antibiotic-resistant bacterial strains. It is believed that the present compounds may be structurally different from known compounds and, as a result, may be more basic in nature. It is an advantage that the present compounds may extend the spectrum of effective bacterial compounds, particularly against previously-resistant bacteria (e.g. ESKAPE organisms), and/or gram negative bacteria, without significant side effects. In a preferred embodiment, the present cephem compound may comprise reference compound ceftazidime, which may be used alone, or in combination with one or more β-lactamase inhibitors, such as NXL-104. As shown, the foregoing composition was tested for minimum inhibitory concentration (MIC, μg/mL) against bacteria listed in Tables 2-3.

E. coli 4103 = experiment: MIC against E. coli 4103; conditions: Table 3, E. coli 4103, KPC-2, TEM-1, CMY-type
Method: (§2) As shown, the foregoing composition was tested for minimum inhibitory concentration (MIC, μg/mL) against bacteria listed in Tables 2-3.

C. freundii 2003 = experiment: MIC against C. freundii 2003; conditions: Table 2, C. freundii 2003, Caz R, IMP S
Excerpt: as §1

S. aureus 3132 = experiment: MIC against S. aureus 3132; conditions: Table 2, S. aureus 3132, MSSA
Excerpt: as §1

S. aureus 3136 = experiment: MIC against S. aureus 3136; conditions: Table 2, S. aureus 3136, MSSA
Excerpt: as §1

C. freundii 580 = experiment: MIC against C. freundii 580; conditions: Table 2, C. freundii 580, Caz R, IMP S
Excerpt: as §1

S. pneumoniae 2389 = experiment: MIC against S. pneumoniae 2389; conditions: Table 2, S. pneumoniae 2389, Pen R
Excerpt: as §1

E. coli 2668 = experiment: MIC against E. coli 2668; conditions: Table 2, E. coli 2668, OXA-48
Excerpt: as §1

E. cloacae 552 = experiment: MIC against E. cloacae 552; conditions: Table 2, E. cloacae 552, Caz S, IMP S
Excerpt: as §1

K. baumanii 2579 = experiment: MIC against K. baumanii 2579; conditions: Table 2, K. baumanii 2579, OXA-25
Excerpt: as §1

P. aeruginosa 2573 = experiment: MIC against P. aeruginosa 2573; conditions: Table 2, P. aeruginosa 2573, OXA-10 (Class D)
Excerpt: as §1

S. pneumoniae 2404 = experiment: MIC against S. pneumoniae 2404; conditions: Table 2, S. pneumoniae 2404, Pen S
Excerpt: as §1

P. aeruginosa 2686 = experiment: MIC against P. aeruginosa 2686; conditions: Table 3, P. aeruginosa 2686, KPC-2
Method: as §2

K. pneumoniae 2712 = experiment: MIC against K. pneumoniae 2712; conditions: Table 3, K. pneumoniae 2712, KPC-3, VIM-1
Method: as §2

S. pneumoniae 2407 = experiment: MIC against S. pneumoniae 2407; conditions: Table 2, S. pneumoniae 2407, Pen S
Excerpt: as §1

[1] = Escherichia coli, alone, read-out: MIC
[2] = Citrobacter freundii, alone, read-out: MIC
[3] = Staphylococcus aureus, alone, read-out: MIC
[4] = Streptococcus pneumoniae, alone, read-out: MIC
[5] = Enterobacter cloacae, alone, read-out: MIC
[6] = Pseudomonas aeruginosa, alone, read-out: MIC
[7] = Klebsiella pneumoniae, alone, read-out: MIC

| SMILES | MIC (K. baumanii 4091; in combination with NXL-104) [µg/mL] | MIC (E. coli 4103; in combination with NXL-104) [µg/mL] | MIC (C. freundii 2003; in combination with NXL-104) [µg/mL] | MIC (S. aureus 3132; in combination with NXL-104) [µg/mL] | MIC (S. aureus 3136; in combination with NXL-104) [µg/mL] | MIC (C. freundii 580; in combination with NXL-104) [µg/mL] | MIC (S. pneumoniae 2389; in combination with NXL-104) [µg/mL] | MIC (E. coli 2668; in combination with NXL-104) [µg/mL] | MIC (E. cloacae 552; in combination with NXL-104) [µg/mL] | MIC (K. baumanii 2579; in combination with NXL-104) [µg/mL] | MIC (P. aeruginosa 2573; in combination with NXL-104) [µg/mL] | MIC (S. pneumoniae 2404; in combination with NXL-104) [µg/mL] | MIC (P. aeruginosa 2686; in combination with NXL-104) [µg/mL] | MIC (K. pneumoniae 2712; in combination with NXL-104) [µg/mL] | MIC (S. pneumoniae 2407; in combination with NXL-104) [µg/mL] | MIC (K. baumanii 4091; alone, read-out: MIC) [µg/mL] | MIC (E. coli 4103; [1]) [µg/mL] | MIC (C. freundii 2003; [2]) [µg/mL] | MIC (S. aureus 3136; [3]) [µg/mL] | MIC (C. freundii 580; [2]) [µg/mL] | other results |
| --- | --- | --- | --- | --- | --- | --- | --- | --- | --- | --- | --- | --- | --- | --- | --- | --- | --- | --- | --- | --- | --- |
| CC(C)(O/N=C(\C(=O)N[C@@H]1C(=O)N2C(C(=O)[O-])=C(C[n+]3ccccc3)CS[C@H]12)c1csc(N)n1)C(=O)O [CAZ, ceftazidime, reference compound] | 16.00 | 16 | 1.00 | 8.00 | 8.00 | 2.00 | 16.00 | 0.50 | 0.25 | >32 | 8.00 | 32.00 | 16 | 16 | 32.00 |  |  |  |  |  | MIC (K. baumanii 4091; alone): >32 µg/mL; MIC (E. coli 4103; alone): >32 µg/mL; MIC (C. freundii 2003; alone): 4.00 µg/mL; MIC (S. aureus 3132; alone): 8.00 µg/mL; MIC (S. aureus 3136; alone): 8.00 µg/mL; MIC (C. freundii 580; alone): 8.00 µg/mL; MIC (S. pneumoniae 2389; alone): 16.00 µg/mL; MIC (E. coli 2668; alone): 1.00 µg/mL; MIC (E. cloacae 552; alone): 0.50 µg/mL; MIC (K. baumanii 2579; alone): >32 µg/mL; MIC (P. aeruginosa 2573; alone): 8.00 µg/mL; MIC (S. pneumoniae 2404; alone): 32.00 µg/mL; MIC (P. aeruginosa 2686; alone): >32 µg/mL; MIC (K. pneumoniae 2712; alone): >32 µg/mL; MIC (S. pneumoniae 2407; alone): 4.00 µg/mL |
| CC(C)(O/N=C(\C(=O)N[C@@H]1C(=O)N2C(C(=O)[O-])=C(C[n+]3ccc4c(ccn4Cc4ccc(C(=N)N)cc4)c3)CS[C@H]12)c1csc(N)n1)C(=O)O [Ex-1, (6R,7R)-7-{[(2Z)-2-(2-Amino-1,3-thiazol-4-yl)-2-{[(2-carboxypropan-2-yl)oxy]imino}acetyl]-amino}-3-{[1-(4-carbamimidoylbenzyl)-1H-pyrrolo[3,2-c]pyridin-5-ium-5-yl]methyl}-8-oxo-5-thia-1-azabicyclo[4.2.0]oct-2-ene-2-carboxylate] |  |  |  |  |  |  |  |  |  |  |  |  |  |  |  | 16 | > 32 | 8 | 2 | 16 | MIC (S. pneumoniae 2389; [4]): 4 µg/mL; MIC (E. coli 2668; [1]): 1 µg/mL; MIC (E. cloacae 552; [5]): 0.12 µg/mL; MIC (K. baumanii 2579; alone, read-out: MIC): 32 µg/mL; MIC (P. aeruginosa 2573; [6]): 4 µg/mL; MIC (S. pneumoniae 2404; [4]): 0.25 µg/mL; MIC (P. aeruginosa 2686; [6]): > 32 µg/mL; MIC (K. pneumoniae 2712; [7]): > 32 µg/mL; MIC (S. pneumoniae 2407; [4]): 0.12 µg/mL |
| CC(C)(O/N=C(\C(=O)N[C@@H]1C(=O)N2C(C(=O)[O-])=C(C[n+]3ccc4n3CCN4Cc3ccc(C(=N)N)cc3)CS[C@H]12)c1csc(N)n1)C(=O)O [Example 2, (6R,7R)-7-{[(2Z)-2-(2-Amino-1,3-thiazol-4-yl)-2-{[(2-carboxypropan-2-yl)oxy]imino}acetyl]amino}-3-{[1-(4-carbamimidoylbenzyl)-2,3-dihydro-1H-imidazo[1,2-b]pyrazol-5-ium-5-yl]methyl}-8-oxo-5-thia-1-azabicyclo[4.2.0]oct-2-ene-2-carboxylate] | 2.00 | 8 | 0.50 | 2.00 | 2.00 | 0.50 | 8.00 | 0.25 | 0.12 | 32.00 | 4.00 | 0.25 | 16 | 4 | 0.12 | 8 | > 32 | 2 | 2 | 4 | MIC (S. aureus 3132; [3]): 2 µg/mL; MIC (S. pneumoniae 2389; [4]): 8 µg/mL; MIC (E. coli 2668; [1]): 0.5 µg/mL; MIC (E. cloacae 552; [5]): 0.12 µg/mL; MIC (K. baumanii 2579; alone, read-out: MIC): > 32 µg/mL; MIC (P. aeruginosa 2573; [6]): 2 µg/mL; MIC (S. pneumoniae 2404; [4]): 0.25 µg/mL; MIC (P. aeruginosa 2686; [6]): > 32 µg/mL; MIC (K. pneumoniae 2712; [7]): > 32 µg/mL; MIC (S. pneumoniae 2407; [4]): 0.12 µg/mL |
| CC(C)(O/N=C(\C(=O)N[C@@H]1C(=O)N2C(C(=O)[O-])=C(C[n+]3ccc4c(ccn4Cc4cc(C(=N)N)cs4)c3)CS[C@H]12)c1csc(N)n1)C(=O)O [Example 5, (6R,7R)-7-{[(2Z)-2-(2-Amino-1,3-thiazol-4-yl)-2-{[(2-carboxypropan-2-yl)oxy]imino}acetyl]amino}-3-({1-[(4-carbamimidoylthiophen-2-yl)methyl]-1H-pyrrolo[3,2-c]pyridin-5-ium-5-yl}methyl)-8-oxo-5-thia-1-azabicyclo[4.2.0]oct-2-ene-2-carboxylate] | 2.00 | 4 | 0.25 | 2.00 | 2.00 | 0.25 | 1.00 | ≤0.06 | ≤0.06 | 8.00 | 4.00 | ≤0.06 | 8 | 4 | ≤0.06 | 8 | > 32 | 8 | 2 | 8 | MIC (S. aureus 3132; [3]): 2 µg/mL; MIC (S. pneumoniae 2389; [4]): 2 µg/mL; MIC (E. coli 2668; [1]): 1 µg/mL; MIC (E. cloacae 552; [5]): 0.12 µg/mL; MIC (K. baumanii 2579; alone, read-out: MIC): > 32 µg/mL; MIC (P. aeruginosa 2573; [6]): 4 µg/mL; MIC (S. pneumoniae 2404; [4]): ≤ 0.06 µg/mL; MIC (P. aeruginosa 2686; [6]): 32 µg/mL (≈ 44.2 µM); MIC (K. pneumoniae 2712; [7]): > 32 µg/mL; MIC (S. pneumoniae 2407; [4]): ≤ 0.06 µg/mL |
